{
  "source": "paper PMC10289985",
  "about": "“Brigatinib pharmacokinetics in patients with chronic hepatic impairment” (Investigational New Drugs, 2023)",
  "origin": "cited, not measured here",
  "key": {"[1]": {"set-up": "method as in ref 26 = [26]; 26. Zykadia [package insert] (2021) Novartis Pharmaceuticals Corporation, East Hanover, NJ", "conditions": "cited from earlier work"}, "[2]": {"set-up": "method as in PMID 30052269", "conditions": "cited from earlier work"}, "[3]": {"set-up": "method as in PMID 29468455", "conditions": "patients with moderate or severe hepatic impairment; cited from earlier work"}},
  "note": "Read-outs that look alike come from different tables or passages of the source.",
  "data": [
    {"smiles": "Cc1cc(Nc2ncc(Cl)c(Nc3ccccc3S(=O)(=O)C(C)C)n2)c(OC(C)C)cc1C1CCNCC1", "note": "[ceritinib]", "values": [
      {"measurement": "systemic exposures compared with healthy participants", "setting": "[1]; mild and moderate hepatic impairment", "result": "similar"},
      {"measurement": "increase of unbound systemic exposure (AUC)", "setting": "[1]; severe hepatic impairment", "result": 108, "unit": "%"}
    ]},
    {"smiles": "CCc1cc2c(cc1N1CCC(N3CCOCC3)CC1)C(C)(C)c1[nH]c3cc(C#N)ccc3c1C2=O", "note": "[alectinib]", "values": [
      {"measurement": "increase of combined systemic exposures (AUC) of alectinib and its M4 metabolite", "setting": "[2]; moderate hepatic impairment vs matched healthy participants", "result": 36, "unit": "%"},
      {"measurement": "increase of combined systemic exposures (AUC) of alectinib and its M4 metabolite", "setting": "[2]; severe hepatic impairment vs matched healthy participants", "result": 76, "unit": "%"}
    ]},
    {"smiles": "C[C@@H](Oc1cc(-c2cnn(C3CCNCC3)c2)cnc1N)c1c(Cl)ccc(F)c1Cl", "note": "[crizotinib]", "values": [
      {"measurement": "change of concentrations in hepatic impairment", "setting": "[3]", "result": "increased"}
    ]}
  ]
}
